Measured values reported in article PMC7470021, “Functionality study of chalcone-hydroxypyridinone hybrids as tyrosinase inhibitors and influence on anti-tyrosinase activity” (Journal of Enzyme Inhibition and Medicinal Chemistry, 2020).
Read-outs that look alike come from different tables or passages of the source.

Legend:
[1] = target: T1, monophenolase activity of mushroom tyrosinase (Agaricus bisporus, UniProt C7FF04); design: method as in PMID 15231412; settings: at 50 μM, literature value; cited from earlier work
mushroom tyrosinase = assay: Reversibility of inhibitory effect on tyrosinase (L-DOPA substrate); type: biochemical; settings: inhibitor 0-25 µM, 30 °C, pH 6.8
Description: Measurement method was substantially the same to that described above, changing the added concentration of the enzyme solution, different concentrations of inhibitor on mushroom tyrosinase L-DOPA as reaction substrate.

[2] = target: T1, monophenolase activity of mushroom tyrosinase; assay: Monophenolase inhibition assay (L-tyrosine substrate, dopachrome absorbance at 475 nm); settings: pH 6.8, read-out: Inhibition (%) on monophenolase activity
Method: L-Tyrosine and L-DOPA were used as reaction substrate for monophenolase and diphenolase assays, respectively. […] Finally, 20 units of enzyme was quickly added to the reaction mixture and incubated at 30 °C for 10 min. […] The assay was carried out in triplicate and DMSO was used as control[17].

[3] = pKa determination by spectrophotometric titration; type: physicochemical; settings: DMSO/water solution (molar ratio 0.2:1) with 0.1 M KCl, 25 °C
Method: (§1) An automated titration system used in the study consists of a Metrohm 765 Dosimat autoburette, a Mettler Toledo MP230 pH metre with SENTEK pH electrode (P11), and an HP 8453 UV-visible spectrophotometer with a Hellem quartz flow cuvette being circulated through by a Gilson Mini-plus #3 pump—speed capability (20 ml/min). A potassium chloride electrolyte solution (0.1 M) was used to maintain the ionic strength. The temperature of the test solutions was maintained in a thermostatic jacketed titration vessel at 25 °C (± 0.1 °C) using a Fisherbrand Isotemp water bath. The pH electrodes were calibrated using GLEE[25] with data obtained by titrating a volumetric standard HCl (0.1 M) in KCl (0.1 M) with KOH (0.1 M) under an argon gas atmosphere in the vessel. The solution under investigation was stirred vigorously during the experiment. […] All instruments were interfaced to a computer and controlled by an in-house programme. An automated titration adopted the following strategy: the pH of a solution was increased by 0.1 pH unit by the addition of KOH solution (0.1 M) from the autoburette. The pH readings were judged to be stable if their values varied by less than 0.01 pH unit after a set incubation period. […] The cycle was repeated until the defined end point pH value was achieved. Titrations were carried out in the solution with molar ratio of DMSO: H2O being 0.2: 1 due to the solubility issue of samples and/or the corresponding copper(II) complexes. Under this condition, the pH metre readings are shifted, compared to the aqueous solution. All the titration data were analysed with the HypSpec2014 programme (http://www.hyperquad.co.uk/)[26]^,[27]. The speciation plot and pM values were calculated with the HYSS programme. Based on deferiprone titrations, pCu^2+ at pH 7.6, denoted as pCu^2+7.6, with [ligand]total = 10 µM and [Metal]total = 1 µM, were calculated as close approximations for pCu^2+ at pH 7.4 in the aqueous solution. Analytical grade reagent materials were used in the preparation of all solutions.

[4] = Copper(II) stability constants determination and pCu2+; type: physicochemical
Method: as §1

[5] = design: method as in PMID 26239546; settings: literature value for kojic acid; cited from earlier work
[6] = 25 °C, 0.1 M KCl, DMSO:H2O molar ratio 0.2:1

T1 sequence (G1K3P4 entry or part of it): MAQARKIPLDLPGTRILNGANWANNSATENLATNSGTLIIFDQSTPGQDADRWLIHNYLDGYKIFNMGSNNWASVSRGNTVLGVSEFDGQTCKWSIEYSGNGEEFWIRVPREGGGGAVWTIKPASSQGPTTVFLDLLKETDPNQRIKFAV
T1 sequence (C7FF04 1-392): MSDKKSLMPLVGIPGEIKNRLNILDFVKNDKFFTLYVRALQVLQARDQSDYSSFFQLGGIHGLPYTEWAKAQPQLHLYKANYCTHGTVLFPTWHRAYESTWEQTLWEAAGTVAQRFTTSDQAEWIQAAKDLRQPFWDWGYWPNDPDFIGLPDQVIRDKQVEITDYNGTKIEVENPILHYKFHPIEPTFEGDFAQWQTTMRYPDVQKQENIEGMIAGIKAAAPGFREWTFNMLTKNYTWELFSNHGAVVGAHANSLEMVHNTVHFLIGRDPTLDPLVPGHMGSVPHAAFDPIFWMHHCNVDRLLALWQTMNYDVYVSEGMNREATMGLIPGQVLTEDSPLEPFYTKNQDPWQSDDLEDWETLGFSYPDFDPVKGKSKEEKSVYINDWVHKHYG

Row | inhibition at 50 µM [2] [%] | SMILES | other results
1 | 63.3 | CCn1cc(O)c(=O)cc1/C=C/C(=O)c1ccccc1 [Compound 1e] | –
2 | 78.8 | CCn1cc(O)c(=O)cc1/C=C/C(=O)c1ccc(O)c(O)c1 [Compound 1f] | –
3 | 71.4 | CCn1cc(O)c(=O)cc1/C=C/C(=O)c1ccc(OC)cc1O [Compound 1g] | –
4 | 57.8 | CCn1cc(O)c(=O)cc1/C=C/C(=O)c1ccc(F)cc1 [Compound 1h] | –
5 | 69.4 | CCCCn1cc(O)c(=O)cc1/C=C/C(=O)c1ccc(O)c(O)c1 [Compound 1j] | –
6 | 64.6 | CCCCn1cc(O)c(=O)cc1/C=C/C(=O)c1ccc(OC)cc1O [Compound 1k] | –
7 | 50.3 | CCCCn1cc(O)c(=O)cc1/C=C/C(=O)c1ccc(F)cc1 [Compound 1l] | –

Continued, molecule first:

Row | SMILES | inhibition at 50 µM [2] [%] | other results
8 | O=C(/C=C/c1ccc(O)cc1)c1ccc(O)cc1O [2′,4′,4-trihydroxychalcone] | – | Inhibition rate [1]: 67%
9 | Cn1cc(O)c(=O)cc1/C=C/C(=O)c1ccc(F)cc1 [Compound 1a] | 85.3 | Reversibility of inhibition on diphenolase activity of tyrosinase (mushroom tyrosinase): reversible
10 | COc1ccc(C(=O)/C=C/c2cc(=O)c(O)cn2C)c(O)c1 [Compound 1b] | 66.7 | –
11 | COc1ccc(C(=O)/C=C/c2cc(=O)c(O)co2)c(OC)c1 [Compound 1c] | 50.3 | –
12 | O=C(/C=C/c1cc(=O)c(O)c[nH]1)c1ccc(F)cc1 [Compound 1d] | 89.5 | Reversibility of inhibition on diphenolase activity of tyrosinase (mushroom tyrosinase): reversible
13 | Cn1cc(O)c(=O)cc1/C=C/C(=O)c1ccccc1 [Compound 1i] | 72.8 | –
14 | O=C(/C=C/c1cc(=O)c(O)c[nH]1)c1ccccc1 [Compound 1m] | 66.7 | –
15 | COc1ccc(C(=O)/C=C/c2cc(=O)c(O)c[nH]2)cc1OC [Compound 1n] | 87.6 | pKa ([3]; DMSO:H2O molar ratio 0.2:1, read-out: pKa (1-NH)): 12; pKa ([3]; DMSO:H2O molar ratio 0.2:1, read-out: pKa (4-oxo functional group)): 3.3; pKa ([3]; DMSO:H2O molar ratio 0.2:1, read-out: pKa (5-hydroxyl group)): 8.8; log β1 (log stability constant of copper complex CuLH) [4, 6]: 20.9; log β2 (log stability constant of copper complex CuL2H2) [4, 6]: 40.4; pCu2+ ([4]; [Cu]total=10^-6 M, [L]total=10^-5 M, pH 7.4, calculated from pKa and log stability constants with HYSS): 9.9
16 | COc1ccc(C(=O)/C=C/c2cc(=O)c(O)c[nH]2)c(O)c1 [Compound 1o] | 63.3 | –
17 | O=c1cc(CO)occ1O [Kojic acid] | – | pCu2+ [5]: 7.3
